Measured values published in patent US8124744B2, “Macrolide derivatives” (Taisho Pharmaceutical Co., Ltd., priority 2006, dated 2012).
Values after ≈ are worked out from the molar mass of the structure shown.

Legend:
[1] = test system: Staphylococcus aureus ATCC29213; test: Minimal inhibitory concentration (MIC); type: cell-based
Summary of the method: (§1)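 Peritoneal exudate cells came from male C57BL/6J mice 3 days after i.p. zymosan A; cultured cells got compound (0.02–20 μM final) 1 h before TNFα (25 ng/ml) and supernatant pro MMP-9 was measured by ELISA after 24 h for IC50 against the TNFα-induced increase. MIC was measured against S. aureus ATCC29213.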

[2] = test system: pro MMP-9 protein; test: Inhibitory activity against proMMP-9 protein production (TNF α-stimulated mouse peritoneal exudate cells, ELISA); type: cell-based, C57BL/6J mice; details: relative activity when the value of Comparative Agent 1 (IC50 = 10.04 ± 4.11 μM) is 10, on the increase of pro MMP-9 by TNF α 25 ng/ml, 24 hours, read-out: IC50 (μM)*
Summary of the method: as §1

[3] = test system: MMP-9 production; details: background art, Non-Patent Document 3; read-out: 50% inhibitory concentration (IC50) value, MMP-9 production; cited from earlier work

MIC [1]	IC50 [2]	SMILES	IC50 [3]
> 128 µg/mL	3.47 µM	CC[C@H]1OC(=O)[C@H](C)[C@@H](O[C@H]2C[C@@](C)(OC)[C@@H](OC(C)=O)[C@H](C)O2)[C@H](C)[C@@H](O[C@@H]2O[C@H](C)C[C@@H](N3CCOCC3)[C@@H]2N(C)C)[C@@](C)(OC)C[C@@H](C)C(=O)[C@H](C)[C@@H](O)[C@H]1C [Example 209, 4″-O-acetyl-3′-dedimethylamino-2′-deoxy-2′-dimethylamino-3′-(4-morpholino)-6-O-methylerythromycin B]	
128 µg/mL (≈ 160 µM)	4.63 µM	CC[C@H]1OC(=O)[C@H](C)[C@@H](O[C@H]2C[C@@](C)(OC)[C@@H](O)[C@H](C)O2)[C@H](C)[C@@H](O[C@@H]2O[C@H](C)C[C@@H](N3CCOCC3)[C@@H]2N(C)C)[C@@](C)(OC)C[C@@H](C)C(=O)[C@H](C)[C@@H](O)[C@H]1C [Example 210, 3′-dedimethylamino-2′-deoxy-2′-dimethylamino-3′-(4-morpholino)-6-O-methylerythromycin B]	
> 128 µg/mL	2.58 µM	CC[C@H]1OC(=O)[C@H](C)C(=O)[C@H](C)[C@@H](O[C@@H]2O[C@H](C)C[C@@H](N3CCOCC3)[C@@H]2N(C)C)[C@@](C)(OC)C[C@@H](C)C(=O)[C@H](C)[C@H]2N(CCCCn3cnc(-c4cccnc4)c3)C(=O)O[C@]12C [Example 211, 3,11-dideoxy-5-O-(3′-dedimethylamino-2′-deoxy-2′-dimethylamino-3′-(4-morpholino)desosaminyl)-11-{4-[4-(pyridin-3-yl)-1H-imidazol-1-yl]butyl}-amino-3-oxo-6-O-methylerythronolide A 11,12-cyclic carbamate]	
> 128 µg/mL	1.78 µM	CC[C@H]1OC(=O)[C@H](C)[C@@H](O[C@H]2C[C@@](C)(OC)[C@@H](OC(C)=O)[C@H](C)O2)[C@H](C)[C@@H](O[C@@H]2O[C@H](C)C[C@@H](N3CCOCC3)[C@@H]2N(C)C)[C@@](C)(OC(C)=O)C[C@@H](C)CN(C)[C@H](C)[C@@H](OC(C)=O)[C@]1(C)O [Example 212, 6,11,4″-O-triacetyl-3′-dedimethylamino-2′-deoxy-2′-dimethylamino-3′-(4-morpholino)-9-deoxo-9a-aza-9a-methyl-9a-homoerythromycin A]	
> 128 µg/mL	0.77 µM	CC[C@H]1OC(=O)[C@H](C)[C@@H](O[C@H]2C[C@@](C)(OC)[C@@H](O)[C@H](C)O2)[C@H](C)[C@@H](O[C@@H]2O[C@H](C)C[C@@H](N3CCOCC3)[C@@H]2N(C)C)[C@@](C)(O)C[C@@H](C)CN(C)[C@H](C)[C@@H](O)[C@]1(C)O [Example 213, 3′-dedimethylamino-2′-deoxy-2′-dimethylamino-3′-(4-morpholino)-9-deoxo-9a-aza-9a-methyl-9a-homoerythromycin A]	
> 128 µg/mL	2.73 µM	CC[C@H]1OC(=O)[C@H](C)[C@@H](O[C@H]2C[C@@](C)(OC)[C@@H](OC(C)=O)[C@H](C)O2)[C@H](C)[C@@H](O[C@@H]2O[C@H](C)C[C@H](N(C)CCN(C)C)[C@H]2O)[C@@](C)(OC)C[C@@H](C)C(=O)[C@H](C)[C@@H](O)[C@]1(C)O [Example 214, 4″-O-acetyl-3′-N-demethyl-3′-N-(2-dimethylaminoethyl)-6-methylerythromycin A]	
> 128 µg/mL	1.21 µM	CC[C@H]1OC(=O)[C@H](C)[C@@H](O[C@H]2C[C@@](C)(OC)[C@@H](OC(C)=O)[C@H](C)O2)[C@H](C)[C@@H](O[C@@H]2O[C@H](C)C[C@@H](N3CCOCC3)[C@@H]2N(C)CCN(C)C)[C@@](C)(OC)C[C@@H](C)C(=O)[C@H](C)[C@@H](O)[C@]1(C)O [Example 215]	
> 128 µg/mL	2.55 µM	CC[C@H]1OC(=O)[C@H](C)[C@@H](O[C@H]2C[C@@](C)(OC)[C@@H](O)[C@H](C)O2)[C@H](C)[C@@H](O[C@@H]2O[C@H](C)C[C@@H](N3CCOCC3)[C@@H]2N(C)CCN(C)C)[C@@](C)(OC)C[C@@H](C)C(=O)[C@H](C)[C@@H](O)[C@]1(C)O [Example 216]	
		CC[C@H]1OC(=O)[C@H](C)[C@@H](O[C@H]2C[C@@](C)(OC)[C@@H](O)[C@H](C)O2)[C@H](C)[C@@H](O[C@@H]2O[C@H](C)C[C@H](N(C)C)[C@H]2O)[C@](C)(O)C[C@@H](C)/C(=N\OCOCCOC)[C@H](C)[C@@H](O)[C@]1(C)O [roxithromycin]	≥ 10000 nM
